The target in one assay is T1, RecG (Thermotoga maritima, UniProt Q9WY48).
T1 construct: made in house
T1 sequence (Q9WY48 1-780): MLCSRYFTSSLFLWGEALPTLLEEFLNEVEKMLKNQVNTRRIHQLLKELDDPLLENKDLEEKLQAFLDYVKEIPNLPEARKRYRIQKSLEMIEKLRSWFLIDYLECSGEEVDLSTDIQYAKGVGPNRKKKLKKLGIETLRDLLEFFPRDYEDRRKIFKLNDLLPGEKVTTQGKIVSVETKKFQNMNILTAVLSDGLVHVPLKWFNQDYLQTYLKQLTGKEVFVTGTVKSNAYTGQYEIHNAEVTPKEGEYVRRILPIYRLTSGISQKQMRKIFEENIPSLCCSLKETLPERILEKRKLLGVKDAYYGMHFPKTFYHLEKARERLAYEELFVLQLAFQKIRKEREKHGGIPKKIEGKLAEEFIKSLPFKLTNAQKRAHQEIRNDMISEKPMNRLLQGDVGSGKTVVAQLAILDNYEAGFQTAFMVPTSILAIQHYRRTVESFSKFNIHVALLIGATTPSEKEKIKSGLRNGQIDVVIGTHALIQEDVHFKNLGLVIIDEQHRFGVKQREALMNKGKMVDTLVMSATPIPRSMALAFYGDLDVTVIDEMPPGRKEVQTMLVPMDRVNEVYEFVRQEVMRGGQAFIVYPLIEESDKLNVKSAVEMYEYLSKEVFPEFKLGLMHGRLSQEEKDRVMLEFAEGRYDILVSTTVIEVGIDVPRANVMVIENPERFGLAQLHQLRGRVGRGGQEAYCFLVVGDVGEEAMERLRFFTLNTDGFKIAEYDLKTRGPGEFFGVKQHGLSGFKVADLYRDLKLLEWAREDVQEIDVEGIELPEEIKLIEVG
Briefly: Double-mix stopped-flow: RecG⋅mantATP then mixed with DNA. Particulars: RecG + mantATP aged 1 s, then mixed with DNA junction (A40:B40). It is filed as biochemical. The procedure: Figure 4 Kinetic measurement of mantATP with excess of RecG and DNA: binding, hydrolysis and Pi release. The concentrations for all experiments were 0.5 µM mantATP, 2.5 µM RecG, 5 µM DNA (A40:B40) and 10 µM MDCC-PBP (for Pi measurement). All measurements were carried out at 20°C in the buffer described in Materials and Methods. (A) Time course of mant fluorescence (solid line), mantADP formation (circles) and Pi release (dashed line), measured as described in materials and methods. […] (B) Simulation of these time courses, based upon a global model for a single turnover of mantATP as described in the text. (C) The time course of mant fluorescence upon mixing 0.5 µM mantATP and 2.5 µM RecG with 5 µM DNA junction (A40:B40) after a first mixing of 5 µM RecG and 1 µM mantATP and aging for 1 s.
As the cleavage step is so slow in the absence of DNA, a double-mix, stopped-flow experiment was performed in order to see if the biphasic increase in mant fluorescence could be separated into the individual processes of mantATP binding and hydrolysis. An excess of RecG was mixed with mantATP and this mix aged for 1 s to allow binding but not hydrolysis. This solution was then mixed with DNA. […] This rate was similar to that of the slower phase, measured above, consistent with this phase being due to DNA-induced hydrolysis.

Another assay concerns the target T2, RecG⋅DNA(A40:B40) (Thermotoga maritima, UniProt Q9WY48).
T2 construct: made in house
T2 sequence (Q9WY48 1-780): T1 sequence (Q9WY48 1-780)
Briefly: Stopped-flow mant fluorescence: mant nucleotide binding to RecG⋅DNA, pseudo-first-order. The note with it: 20°C. The protocol:
MantATP binding to RecG⋅DNA(A40:B40) was measured under pseudo-first-order conditions, that is mantATP in large excess over the protein. Using the stopped-flow apparatus, several concentrations of mantATP were rapidly mixed with RecG⋅DNA and fluorescence followed with time. Each trace was fitted by a single exponential (Figure 3A) and the concentration dependence of the observed rate constants were fit well by a hyperbola (Figure 3B). […] As mantATP is also hydrolyzed, the rate of the forward reaction needs to be included, in this case limited by the cleavage step 2, as described later. The fit gives 1/K 1a as 24 (±4) µM, k +1b + k −1b + k +2 as 26.1 (±1.8) s^−1 and the intercept gives k −1b + k +2 as <1 s^−1. Given that k +2 is 0.2 s^–1 (see below), k −1b is <0.8 s^−1. Potentially, an alternative explanation for such a hyperbolic relationship could be preferential binding of either the 2′- or 3′-isomer of mantATP and then isomerization of the non-favored isomer. However, the observed rates in these measurements were several orders of magnitude faster than the likely isomerization rate. In order to assess whether the two isomers of mantATP and their interconversion are factors in any fluorescence traces for mantATP, an equivalent measurement was made using 3′-mant-2′-deoxyATP.
Figure 3 MantATP binding to RecG⋅DNA. MantATP at the micromolar concentrations shown was mixed in the stopped flow apparatus with 0.5 µM RecG and 2.5 µM DNA Junction (A40:B40) at 20°C in the buffer described in materials and methods. Individual traces (offset from each other) were fitted to single exponentials and the dependence of the rate constants on concentration was then fitted by a hyperbola. The points shown are averages of at least 3 measurements. The fit gives 1/K 1a as 24 (±4) µM and k +1b + k− 1b + k +2 as 26.1 (±1.8) s^−1 and the intercept was <1 s^–1 (Scheme in Figure 2B).
MantADP binding to RecG⋅DNA complex was measured under pseudo-first order conditions by stopped-flow fluorescence.
Figure 5 MantADP binding kinetics to RecG⋅DNA. MantADP at various concentrations was mixed in the stopped flow apparatus with 0.5 µM RecG and 2.5 µM DNA (A40:B40) under the conditions of Figure 4. Traces (not shown) were fitted by single exponentials. The rate constants are shown as a function of concentration and the best linear fit, gives a slope of 1.1 (±0.4) µM^−1s^−1 and an intercept of <1 s^−1.
Stopped-flow experiments were performed in a HiTech SF61DX2 apparatus (TgK Scientific Ltd, Bradford-on-Avon, UK) with a mercury-xenon light source and HiTech KinetAsyst 3 or Kinetic Studio 1 software. For MDCC-PBP fluorescence, the excitation wavelength used was 436 nm and a 455 nm cut-off filter (Schott glass) used to collect emitted light. The signal was calibrated using known concentrations of Pi. The solutions contained the Pi mop, to minimize phosphate contamination and comprising 0.01 unit ml^−1 bacterial purine nucleoside phosphorylase and 200 µM 7-methylguanosine. For mant fluorescence, 366 nm was used to excite and a 400 nm cut-off filter (Schott glass) used to collect light. Measurements of Cy3 fluorescence used 547 nm excitation and a 570 nm cut-off filter. In experiments described, the quoted concentrations are those in the mixing chamber, except where stated. Data were fitted to theoretical curves using the HiTech software or Grafit.

As for `CNc1ccccc1C(=O)O[C@H]1[C@@H](O)[C@H](n2cnc3c(N)ncnc32)O[C@@H]1COP(=O)(O)OP(=O)(O)OP(=O)(O)O` [mantATP, 2′(3′)-O-(N-methylanthraniloyl)ATP], the “rate constant of single exponential increase in mant fluorescence” value at RecG was 0.3 (±0.04) s^−1. At RecG⋅DNA(A40:B40), the “k +1b” value is 25.1 s⁻¹ and the “k −1b” value was under 0.8 s⁻¹. Besides, on RecG⋅DNA(A40:B40) (linear fit), the “k −4 (mantADP second order binding rate constant, slope)” value is 1.1e+06 M⁻¹ s⁻¹. Besides, at RecG⋅DNA(A40:B40) (hyperbolic fit), the “intercept, k −1b + k +2” value is under 1 s⁻¹ and the “k +1b + k −1b + k +2” value is recorded as 26.1 (±1.8) s^−1.

Values taken from article PMC3368886, “ATPase Cycle and DNA Unwinding Kinetics of RecG Helicase” (PLoS ONE, 2012).
